Assay results: PMC10812672, “Short Antimicrobial Peptide Derived from the Venom Gland Transcriptome of Pamphobeteus verdolaga Increases Gentamicin Susceptibility of Multidrug-Resistant Klebsiella pneumoniae” (Antibiotics, 2023)
Ends that are not written are not given here.

Key:
E. coli ATCC® 25922 [1] = assay type: cell-based, Escherichia coli; settings: CLSI broth microdilution, Mueller-Hinton broth, peptide 30 µM, ~6 × 10^6 CFU/mL, 24 h 37 °C, OD600; triplicate, three independent assays; NA = no activity
Experimental: (§1) Activity screening was conducted using the broth microdilution method at a fixed peptide concentration of 30 µM against E. coli ATCC® 8739 and 25922, as well as S. aureus ATCC® 6538 and 29213. The bacterial density used for screening was approximately 6 × 10^6 CFU/mL [30]. Peptide activity measurements were conducted in terms of the growth inhibition percentage. No dose-response curves were generated during the screening phase as a resource optimization strategy in the initial activity evaluation. […] For S. aureus ATCC® 6538 and S. aureus ATCC® 29213, growth inhibition ranged from 0% to 140% and 0% to 98%, respectively (Table 1).
(§2) The evaluation of the antimicrobial activity of the peptides was conducted using the CLSI’s broth microdilution method for bacterial susceptibility testing. For the screening phase, peptides were evaluated at a single 30 μM concentration, in triplicate and in three independent assays, against the E. coli ATCC® 8739, E. coli ATCC® 25922, S. aureus ATCC® 6538, or S. aureus ATCC® 29213 reference USP and CLSI strains. For the determination of MIC, MBC, or IC50, peptides or antibiotics were evaluated in concentrations between 1.56–200 µM. These evaluations were conducted in triplicate and in three independent assays, against the E. coli ATCC® 25922, S. aureus ATCC® 29213, E. faecalis ATCC® 49532, P. aeruginosa ATCC® 9027, and K. pneumoniae ATCC® BAA-1705, or the clinically isolated MDR strain. In detail, 1 mL of a glycerol stock solution of the ATCC® or clinically isolated bacterial strain was added to 9 mL of Mueller-Hinton Broth and incubated for 18 h, 180 rpm and 37 °C (Incubator 1000, Heidolph Instruments, Schwabach, Germany). After the incubation, 1 mL of the previous solution was transferred to a new recipient containing 9 mL of fresh Mueller-Hinton broth and incubated for 4 h, 180 rpm and 37 °C (Incubator 1000, Heidolph Instruments, Schwabach, Germany). During the second incubation, the peptides or the antibiotics were dissolved in PBS pH 7.20 in concentrations between 19.53–2500 µM (MC5 Micro Balance, Sartorius AG, Göttingen, Germany). An amount of 10 µL of either peptide or antibiotic was dispensed in triplicate in 96-well flat bottom culture plates, along with 10 µL of PBS (Negative activity control), BTM-P1 (Positive activity control), or 10 µL of Mueller-Hinton broth (Blank); then, 110 µL of Mueller-Hinton broth was poured in all wells. Following this, the bacteria were suspended in Mueller-Hinton broth up to a concentration of approximately 1.50 × 10^8 CFU/mL, as measured by optical density at 600 nm between 0.06 to 0.11 (0.5 McFarland standard), in a Multiskan SkyHigh spectrophotometer (ThermoFisher Scientific, Waltham, MA, USA). Amounts of 5 µL of the 1.50 × 10^8 CFU/mL suspension were added to each well (except for the blank) for a final well concentration of approximately 6 × 10^6 CFU/mL. The plate was incubated for 24 h at 37 °C (BE 500, Memmert GmbH, Büchenbach, Germany) and optical density was measured at 600 nm in a Multiskan SkyHigh spectrophotometer (ThermoFisher Scientific, Waltham, MI, USA). Following the measurement of optical density, plates were visually inspected to determine the MIC. Subsequently, 100 µL of the concentration associated to the MIC and 100 µL of the next higher concentration were added to Petri dishes containing Mueller-Hinton Agar. The dishes were then incubated for 24 h at 37 °C (BE 500, Memmert GmbH, Büchenbach, Germany). After incubation, the Petri dishes were visually inspected, and the MBC was determined in the absence of growth. IC50 values were interpolated from regressions with correlation values above 0.70. Growth inhibition percentages were calculated as follows: Growth inhibition %=1−AbsPEPTIDE or ANTIBIOTIC−Median AbsBLANK/Median AbsPBS−Median AbsBLANK×100

E. coli ATCC® 8739 = assay type: cell-based, Escherichia coli; settings: CLSI broth microdilution, Mueller-Hinton broth, peptide 30 µM, ~6 × 10^6 CFU/mL, 24 h 37 °C, OD600; triplicate, three independent assays; NA = no activity
Experimental: as §1, §2

E. coli ATCC® 25922 [2] = assay type: cell-based, Escherichia coli
Experimental: (§3) The nine AMPs identified in the initial screening were evaluated at concentrations between 1.56–200 µM, against E. coli ATCC® 25922, S. aureus ATCC® 29213, E. faecalis ATCC® 49532, P. aeruginosa ATCC® 9027, and K. pneumoniae ATCC® BAA-1705 (Supplementary Figures S2–S6). […] Only PvAMP66 and PvAMP172 reached the MBC for S. aureus at 50 µM and 100 µM, respectively (Table 2).
as §2

[3] = tested on: K. pneumoniae ATCC® BAA-1705; assay type: cell-based, Klebsiella pneumoniae
Experimental: as §3
The evaluation of the antimicrobial activity of the peptides was conducted using the CLSI’s broth microdilution method for bacterial susceptibility testing. For the screening phase, peptides were evaluated at a single 30 μM concentration, in triplicate and in three independent assays, against the E. coli ATCC® 8739, E. coli ATCC® 25922, S. aureus ATCC® 6538, or S. aureus ATCC® 29213 reference USP and CLSI strains. […] Following this, the bacteria were suspended in Mueller-Hinton broth up to a concentration of approximately 1.50 × 10^8 CFU/mL, as measured by optical density at 600 nm between 0.06 to 0.11 (0.5 McFarland standard), in a Multiskan SkyHigh spectrophotometer (ThermoFisher Scientific, Waltham, MA, USA). […] The plate was incubated for 24 h at 37 °C (BE 500, Memmert GmbH, Büchenbach, Germany) and optical density was measured at 600 nm in a Multiskan SkyHigh spectrophotometer (ThermoFisher Scientific, Waltham, MI, USA). […]

**Q.** Which results are given for WKKIKKFF-NH2 [PvAMP66]?
**A.** E. coli ATCC® 25922 (Inhibition %) (E. coli ATCC® 25922 [1]): 73.59 ± 21.83 %; E. coli ATCC® 8739 (Inhibition %) (E. coli ATCC® 8739): 88.81 ± 18.15 %; MIC (E. coli ATCC® 25922 [2]; 1.56–200 µM, 24 h 37 °C, visual inspection, triplicate, three independent assays): 50 µM; IC50 (E. coli ATCC® 25922 [2]; growth inhibition OD600, interpolated from regression, 95% confidence interval in parentheses, read-out: IC50): 38.3 µM; MBC (E. coli ATCC® 25922 [2]; plating on Mueller-Hinton agar, 24 h 37 °C, absence of growth): 50 µM; MIC ([3]; 1.56–200 µM, 24 h 37 °C, visual inspection): 100 µM; IC50 ([3]; growth inhibition OD600, 95% confidence interval in parentheses): 45.5 µM
